Measured values as given in PMC11981937 (Nature, 2025).
“And” between values parts separate entries of the source, which are not always exact repeats. Equal entries are not always repeated. Where two headings read alike, the source gives them in different places.

Tests used:
HCoV-229E [1] = assay: microbe, parasite or virus in culture; type: cell-based
SARS-CoV-2 (B1 strain) = assay: microbe, parasite or virus in culture; type: cell-based; conditions: Severe acute respiratory syndrome coronavirus 2; SARS-CoV-2 B1, in a variety of cell types
[2] = target: purified recombinant SARS-CoV-2 M (Severe acute respiratory syndrome coronavirus 2, UniProt P0DTC5); assay: Nano differential scanning fluorimetry (nanoDSF); type: binding; conditions: 100 µM compound, 0.5 mg/ml M protein, n=3
in vivo [3] = conditions: rat
Pg-CoV = assay: microbe, parasite or virus in culture; type: cell-based; conditions: Pangolin coronavirus
in vitro [4] = conditions: human
in vivo [5] = conditions: Syrian golden, hamster; for concentration at 0.05 h / concentration at 1 h / concentration at 2 h / concentration at 4 h / concentration at 7 h / concentration at 24 h / concentration at 12 h / concentration at 0.5 h: female
MHV [6] = assay: MHV antiviral assay in Huh7 cells (luciferase); type: cell-based, mouse hepatitis virus; conditions: Murine coronavirus, Huh-7, Huh7, MHV (betaCoV), N=2
SHC014 = assay: organism not typed; type: cell-based, bat SHC014
[7] = Post-exposure Syrian golden hamster model, body weight; conditions: in vivo, 75 mg/kg
in vitro [8] = conditions: African green monkey
IBV = assay: microbe, parasite or virus in culture; type: cell-based, infectious bronchitis virus
[9] = tested on: SARS-CoV-2 (USA-WA1/2020); set-up: species or system Syrian golden hamster; conditions: hamster, in vivo
in vivo [10] = conditions: cynomolgus monkey
HCoV-229E [11] = assay: microbe, parasite or virus in culture; type: cell-based; conditions: Human coronavirus 229E
SARS-CoV = assay: microbe, parasite or virus in culture; type: cell-based; conditions: Severe acute respiratory syndrome coronavirus, Vero
HCoV-NL63 = HCoV-NL63 CPE reduction assay in LLC-MK2 cells; type: cell-based
WIV-1 = assay: organism not typed; type: cell-based, bat WIV-1
[12] = target: T1, purified recombinant M protein (Severe acute respiratory syndrome coronavirus 2, UniProt P0DTC5); type: binding, SARS-CoV-2; conditions: 5 µM compound
T1 construct: SARS-CoV-2 M protein (1–222, UniProt: P0DTC5); ALFA-tag (C); C-tag (EPEA) (C); made in house; host or cells: Expi293F cells (Invitrogen), transient transfection of a pcDNA3.4 construct

[13] = type: in vivo, Syrian golden hamster; conditions: pre-exposure; for % body weight change compared to day 0, Avg: day 4 vs day 0, group average; for % body weight change compared to day 0: day 4 vs day 0, individual animals
MERS-CoV = assay: microbe, parasite or virus in culture; type: cell-based; conditions: Middle East respiratory syndrome-related coronavirus, Huh-7, read-out: Median EC50
MHV [14] = assay: MHV antiviral assay in HeLa cells (luciferase); type: cell-based, mouse hepatitis virus; conditions: Murine coronavirus, MHV (betaCoV)
in vitro [15] = conditions: human; remark: listed apart in the source
[16] = female, Syrian golden, hamster, in vivo, po
[17] = po, 50 mg/kg, individual animal

C[C@H]1Cn2ncc(C(=O)Nc3cccc(C#N)c3)c2C(=O)N1c1ccc(C(F)(F)c2ccccc2)cc1 [JNJ-9676, (S)-N-(3-cyanophenyl)-5-(4-(difluoro(phenyl)methyl)phenyl)-6-methyl-4-oxo-4,5,6,7-tetrahydropyrazolo[1,5-a]pyrazine-3-carboxamide]
EC50 (HCoV-229E [1]; Human coronavirus 229E, Huh-7, read-out: Median EC50): > 30 µM
EC90 (HCoV-229E [1]; Human coronavirus 229E, Huh-7, read-out: Median EC90): > 30 µM
antiviral activity (in words) (HCoV-229E [1]; […], cell type not given): no activity
EC50 (SARS-CoV-2 (B1 strain)): 0.014 to 0.022 µM
Tm [2]: 54.1 ± 0.1 °C
ΔTm (stabilization in melting temperature) [2]: 0.9 °C
Vd (in vivo [3]): 8.4 L/kg
clearance (in vivo [3]): 5.2 mL/min/kg
half-life (in vivo [3]): 19 h
bioavailability (in vivo [3]; po): > 70%
EC50 (Pg-CoV): 0.004 to 0.006 µM
CC50 at 6 days (in vitro [4]): > 50 µM
Vd (in vivo [5]): 7.9 L/kg
clearance (in vivo [5]): 9 mL/min/kg
half-life (in vivo [5]): 13 h
bioavailability (in vivo [5]; po): > 50%
concentration at 0.05 h (in vivo [5]; iv, 1 mg/kg, average): 555 ng/mL
concentration at 1 h (in vivo [5]; iv, 1 mg/kg, average): 240 ng/mL
concentration at 2 h (in vivo [5]; iv, 1 mg/kg, average): 186 ng/mL
concentration at 4 h (in vivo [5]; iv, 1 mg/kg, average): 83.8 ng/mL
concentration at 7 h (in vivo [5]; iv, 1 mg/kg, average): 47.7 ng/mL
concentration at 24 h (in vivo [5]; iv, 1 mg/kg, average): 19.2 ng/mL
concentration at 12 h (in vivo [5]; iv, 1 mg/kg, average, female hamster, IV 1 mg/kg, 12 h, n=3): 25.1 ng/mL
concentration at 0.05 h (in vivo [5]; iv, 1 mg/kg, individual animal): 558 ng/mL
concentration at 1 h (in vivo [5]; iv, 1 mg/kg, individual animal): 268 ng/mL
concentration at 2 h (in vivo [5]; iv, 1 mg/kg, individual animal): 170 ng/mL
concentration at 4 h (in vivo [5]; iv, 1 mg/kg, individual animal): 75.9 ng/mL
concentration at 7 h (in vivo [5]; iv, 1 mg/kg, individual animal): 45.4 ng/mL
concentration at 12 h (in vivo [5]; iv, 1 mg/kg, individual animal): 26.7 ng/mL
concentration at 24 h (in vivo [5]; iv, 1 mg/kg, individual animal): 20.1 ng/mL
concentration at 0.5 h (in vivo [5]; po, 5 mg/kg, average): 68.1 ng/mL
concentration at 1 h (in vivo [5]; po, 5 mg/kg, average): 114 ng/mL
concentration at 2 h (in vivo [5]; po, 5 mg/kg, average): 220 ng/mL
concentration at 4 h (in vivo [5]; po, 5 mg/kg, average): 264 ng/mL
concentration at 7 h (in vivo [5]; po, 5 mg/kg, average): 176 ng/mL
concentration at 12 h (in vivo [5]; po, 5 mg/kg, average): 129 ng/mL
concentration at 24 h (in vivo [5]; po, 5 mg/kg, average): 82.6 ng/mL
concentration at 0.5 h (in vivo [5]; po, 5 mg/kg, individual animal): 71 ng/mL
concentration at 1 h (in vivo [5]; po, 5 mg/kg, individual animal): 95.4 ng/mL
concentration at 2 h (in vivo [5]; po, 5 mg/kg, individual animal): 230 ng/mL
concentration at 7 h (in vivo [5]; po, 5 mg/kg, individual animal): 142 ng/mL
concentration at 12 h (in vivo [5]; po, 5 mg/kg, individual animal): 89.2 ng/mL
concentration at 12 h (in vivo [5]; po, 5 mg/kg, individual animal, female hamster, PO 5mg/kg, 12 h): 145 ng/mL
concentration at 0.5 h (in vivo [5]; po, 50 mg/kg, average): 801 ng/mL
concentration at 1 h (in vivo [5]; po, 50 mg/kg, average): 1060 ng/mL
concentration at 4 h (in vivo [5]; po, 50 mg/kg, average): 2430 ng/mL
concentration at 7 h (in vivo [5]; po, 50 mg/kg, average): 2080 ng/mL
concentration at 24 h (in vivo [5]; po, 50 mg/kg, average): 655 ng/mL
concentration at 2 h (in vivo [5]; po, 50 mg/kg, average, female hamster, PO 50mg/kg, 2 h, n=3): 1760 ng/mL
concentration at 12 h (in vivo [5]; po, 50 mg/kg, average, female hamster, PO 50mg/kg, 12 h, n=3): 1200 ng/mL
concentration at 0.5 h (in vivo [5]; [17]): 680 ng/mL
concentration at 1 h (in vivo [5]; [17]): 829 ng/mL
concentration at 2 h (in vivo [5]; [17]): 1580 ng/mL
concentration at 4 h (in vivo [5]; [17]): 2230 ng/mL
concentration at 7 h (in vivo [5]; [17]): 1510 ng/mL
concentration at 1 h (in vivo [5]; po, 50 mg/kg, individual animal, female hamster, PO 50mg/kg, 1 h): 1450 ng/mL
EC50 (MHV [6]; read-out: Median EC50): 3.4 µM
EC90 (MHV [6]; read-out: Median EC90): 12.4 µM
EC50 (SHC014): 0.004 to 0.006 µM
Average body weight change (%) on day 4 compared to day 0 [7]: -0.615% and -5.840% and -3.968%
CC50 (in vitro [8]): > 50 µM
EC50 (IBV; Avian coronavirus, Huh-7, read-out: Median EC50): 8 µM
EC90 (IBV; Avian coronavirus, Huh-7, read-out: Median EC90): > 30 µM
potency (in words) (IBV; gammacoronavirus IBV): single-digit micromolar potency
Infectious SARS-CoV2 virus in the lung, Avg [9]: 137996 PFU/g Lung and 75729 PFU/g Lung
Infectious SARS-CoV2 virus in the lung, Log10, Avg [9]: 3.732 Log10 PFU/g Lung and 3.479 Log10 PFU/g Lung
Vd (in vivo [10]): 5.1 L/kg
clearance (in vivo [10]): 1.9 mL/min/kg
half-life (in vivo [10]): 35 h
bioavailability (in vivo [10]; po): > 30%
EC50 (HCoV-229E [11]; read-out: Median EC50): > 12.5 µM
EC90 (HCoV-229E [11]; read-out: Median EC90): > 12.5 µM
EC50 (SARS-CoV; read-out: Median EC50): 0.016 µM
EC90 (SARS-CoV; read-out: Median EC90): 0.02 µM
antiviral activity (in words) (HCoV-NL63; HCoV-NL63): no activity
EC50 (HCoV-NL63; Human coronavirus NL63, LLC-MK2, HCoV-NL63 (alphaCoV), N=2, read-out: Median EC50): > 20 µM
EC90 (HCoV-NL63; Human coronavirus NL63, LLC-MK2, HCoV-NL63 (alphaCoV), N=2, read-out: Median EC90): > 20 µM
EC50 (WIV-1): 0.004 to 0.006 µM
compound recovery with M-protein:Fab B complex compared to M protein alone or M-protein:Fab E complex [12]: significantly higher
compound recovery with M protein relative to buffer-only control ([12]; 5 µM M protein): reproducible JNJ-9676 recovery
% body weight change compared to day 0, Avg ([13]; JNJ-9676 8.33 mpk BID): 1.86%
% body weight change compared to day 0 ([13]; JNJ-9676 8.33 mpk BID, 8.33 mg/kg): 2.5% and 0.6% and 1.8% and 3% and 1.4%
% body weight change compared to day 0, Avg ([13]; JNJ-9676 25 mpk BID): 5.08%
% body weight change compared to day 0 ([13]; JNJ-9676 25 mpk BID, 25 mg/kg): 3.8% and 4.1% and 7.5% and 7.1% and 2.9%
% body weight change compared to day 0, Avg ([13]; JNJ-9676 75 mpk BID): 2.14%
% body weight change compared to day 0 ([13]; JNJ-9676 75 mpk BID, 75 mg/kg): -0.3% and 0.3% and 3.9% and 4.1% and 2.7%
EC50 (MERS-CoV): 0.6 µM
EC50 (MHV [14]; read-out: EC50 (column Median EC50; N=1, no median)): 1.3 µM
EC90 (MHV [14]; read-out: EC90 (column Median EC90; N=1, no median)): 6.3 µM
CC50 (in vitro [15]; Median CC50): > 20 µM
CC50 (in vitro [15]; Median CC50, Huh7, line of MHV, N=2): > 20 µM
CC50 (in vitro [15]; Median CC50, Huh7, line of PDCoV, N=2): > 30 µM
Concentration, individual animal ([16]; 5 mg/kg, 12 h): 153 ng/mL
Concentration, individual animal ([16]; 50 mg/kg, 1 h): 908 ng/mL
